Measured values from US12697343B2, “Intravenous istaroxime for the treatment of acute heart failure” (Seismic Pharmaceuticals Operations LLC, priority 2021, dated 2026).
Structures can show the parent of a compound that is named as a salt.

Test system: patients hospitalized for acute heart failure (AHF)
Test: Echocardiographic parameters (tissue Doppler echocardiography), phase II trial of 24 h istaroxime infusion
Assay type: in vivo, human
Design: E/e′ change from baseline to 24 h: dose or concentration left out as unconfirmed
Details: for E/e′ change from baseline to 24 h (primary endpoint): mITT, hydrochloride; for E/e′ change from baseline to 24 h (primary endpoint) / E/A ratio change at 24 h / LV ejection fraction change at 24 h / LV end-diastolic volume index change at 24 h / LV end-systolic volume index change at 24 h / Left atrial area change at 24 h / Left atrial volume index change at 24 h / Stroke volume index change at 24 h / S′ change at 24 h: mean ± standard deviation
Source text: The measurement of one or more cardiac parameters disclosed herein can be measured by Echocardiography which may be performed on subjects according to international standards (see, for example, Lang R M et a I. J Am Soc Echocardiogr 2005; 18(12): 1440-63; Nagueh S F et al. Eur J Echocardiogr 2009; 10(2): 165-93; Evangelista A et a I. Eur J Echocardiogr 2008; 9(4):438-48).
In some embodiments, cardiac parameters can be measured as follows: • 1. Cardiac dimension measures: • a. Left ventricle end diastolic diameter (EDD): measured with M-mode echocardiography at the level of mitral valve (MV) leaflets from parasternal long axis view (PLAX) (normal range [N R]: 42-59 mm males and 39-53 mm females); • b. Left ventricle end systolic diameter (ESD): measured with M-mode echocardiography at the level of mitral valve (MV) leaflets from PLAX (N R: 25-35 mm): • c. Left ventricle end diastolic volume (EDV): measured with M-mode echocardiography at the level of mitral valve (MV) leaflets from PLAX (N R: 67-155 mL males and 56-104 mL females); • d. Left ventricle end systolic volume (ESV): measured with M-mode echocardiography at the level of mitral valve (MV) leaflets from PLAX (N R: 22-58 mL males and 19-49 mL females); • e. Left atrium diameter (LAD): measured at end-ventricular systole with M-mode echocardiography from PLAX. (N R: 30-40 mm males and 27-38 mm females) • f. Left atrium area (LAA): measured from apical four chamber view (NR: £20 cm2); and • g. Left atrium volume (LAV): derived from area-length measured from apical four chamber view (N R: 18-58 mL males and 22-52 mL females). • 2. Left ventricle diastolic function parameters: • a. E wave: measured from mitral valve pulsed wave Doppler, is the peak velocity of early filling. […] A wave: measured from mitral valve pulsed wave Doppler is the peak velocity of late atrial filling. Not evaluable in subjects with AF: • c. E wave deceleration time (EDT): measured from mitral valve pulsed wave Doppler represent the slope of the descending part of E wave; • d. E/A ratio: determines the type of diastolic filling pattern (normal E/A=1-2 and EDT=150-200 ms, abnormal relaxation E/A<1 and EDT>240 ms, pseudonormal E/A=0.8-1.5: restrictive E/A^32 and EDT <160 ms). Not evaluable in subjects with AF; • e. Ea: measured with tissue Doppler method at the lateral and septal side of the mitral annulus from apical four chamber view is the early diastolic velocity. The value has been calculated as the average between Ea lateral and Ea septal. (NR310 cm/s) (see Nagueh S F et al. Eur J Echocardiogr. 2009:10(2):165-93); • f. Aa: measured with tissue Doppler method at the lateral and septal side of the mitral annulus from apical four chamber view is the late atrial diastolic velocity. The value has been calculated as the average between Aa lateral and Aa septal. Not evaluable in subjects with AF; and • g. E/Ea ratio: this is a derived measure from E and Ea value. This is highly correlated with left ventricle filling pressure and with prognosis in subjects with HF. (NR: <13) (see Nagueh S F et al. supra). • 3. Left ventricle systolic function parameters: • a. Left ventricle ejection fraction (LVEF): measured with Simpson biplane method according to international recommendations from apical four chamber view and apical two chamber view. (NR ^355%) (see Lang R M et al. J Am Soc Echocardiogr. 2005:18(12): 1440-63); and • b. Sa: measured with tissue Doppler method at the lateral and septal side of the mitral annulus from apical four chamber view. The value has been calculated as the average between Sa lateral and Sa septal. […] Overall cardiac contraction parameters: • a. Stroke volume (SV): is a derived measure obtained with the application of Bernoulli's formula using the dimension of left ventricle outflow tract (LVOT) as diameter and LVOT time velocity integral as velocity. (NR>60 mL/beat); • b. Cardiac output (CO): is derived by the multiplication of SV× heart rate (HR) (NR: >4 L/min); • c. […]

## C[C@]12CCC(=NOCCN)C[C@@H]1C(=O)C[C@@H]1[C@@H]2CC[C@]2(C)C(=O)CC[C@@H]12 [Istaroxime, (E,Z)-3-((2-aminoethoxy)imino)androstane-6,17-dione hydrochloride]
0.5 μg/Kg/min, 6 hours
  A wave mean change from baseline: 1.76 cm/s
  CI mean change from baseline: 0.20 l/min/m^2
  E wave mean change from baseline: -4.35 cm/s
  E/A ratio mean change from baseline: −0.28
  E/e′ ratio mean change from baseline: −3.48
  EDV Index mean change from baseline: 0.85 ml/m^2
  EDV mean change from baseline: 1.47 mL
  ESV Index mean change from baseline: −2.54 ml/m^2
  ESV mean change from baseline: -4.89 mL
  IVC diameter mean change from baseline: −2.41 mm
  LAA mean change from baseline: −0.38 cm^2
  LAV mean change from baseline: 0.05 mL
  LAVI mean change from baseline: −0.51 mL/m^2
  LVEF mean change from baseline: 2.03%
  PASP mean change from baseline: −4.21 mmHg
  SVI mean change from baseline: 5.66 ml/beat/m^2
  S′ mean change from baseline: 0.63 cm/s
  TAPSE mean change from baseline: 0.41 mm
  e′ mean change from baseline: 0.63 cm/s
0.5 μg/Kg/min, 24 hours
  A wave mean change from baseline: 5.13 cm/s
  CI mean change from baseline: 0.27 l/min/m^2
  E wave mean change from baseline: -8.14 cm/s
  E/A ratio mean change from baseline: −0.64
  E/e′ ratio mean change from baseline: −4.55
  EDV Index mean change from baseline: −0.20 ml/m^2
  EDV mean change from baseline: -0.71 mL
  ESV Index mean change from baseline: −3.78 ml/m^2
  ESV mean change from baseline: -7.11 mL
  IVC diameter mean change from baseline: −4.30 mm
  LAA mean change from baseline: −1.70 cm^2
  LAV mean change from baseline: -7.94 mL
  LAVI mean change from baseline: −4.32 mL/m^2
  LVEF mean change from baseline: 3.03%
  PASP mean change from baseline: −10.89 mmHg
  SVI mean change from baseline: 5.33 ml/beat/m^2
  S′ mean change from baseline: 0.68 cm/s
  TAPSE mean change from baseline: 0.73 mm
  e′ mean change from baseline: 0.94 cm/s
0.5 μg/Kg/min, 48 hours
  A wave mean change from baseline: -0.94 cm/s
  CI mean change from baseline: 0.19 l/min/m^2
  E wave mean change from baseline: -5.21 cm/s
  E/A ratio mean change from baseline: −0.28
  E/e′ ratio mean change from baseline: −2.56
  EDV Index mean change from baseline: −0.07 ml/m^2
  EDV mean change from baseline: -0.59 mL
  ESV Index mean change from baseline: −1.19 ml/m^2
  ESV mean change from baseline: -2.57 mL
  IVC diameter mean change from baseline: −4.16 mm
  LAA mean change from baseline: −2.01 cm^2
  LAV mean change from baseline: -9.17 mL
  LAVI mean change from baseline: −5.01 mL/m^2
  LVEF mean change from baseline: 1.19%
  PASP mean change from baseline: −11.18 mmHg
  SVI mean change from baseline: 3.68 ml/beat/m^2
  S′ mean change from baseline: 0.22 cm/s
  TAPSE mean change from baseline: −0.34 mm
  e′ mean change from baseline: 0.32 cm/s
0.5 μg/kg/min (cohort 1)
  E/e′ change from baseline to 24 h (primary endpoint): −4.55 ± 4.75
0.5 μg/kg/min (cohort 1), listed as istaroxime
  E/e′ change from baseline to 24 h (primary endpoint): −4.55±4.75
0.5 μg/kg/min
  E/A ratio change at 24 h: −0.64 ± 0.79
  LV ejection fraction change at 24 h: 3.03 ± 4.04%
  LV end-diastolic volume index change at 24 h: −0.20 ± 5.45 mL/m^2
  LV end-systolic volume index change at 24 h: −3.78 ± 6.76 mL/m^2
  Left atrial area change at 24 h: −1.70 ± 2.46 cm^2
  Left atrial volume index change at 24 h: −4.32 ± 7.28 mL/m^2
  Stroke volume index change at 24 h: 5.33 ± 6.67 mL/beat/m^2
  S′ change at 24 h: 0.68 ± 0.91 cm/s
1.0 μg/Kg/min, 6 hours
  A wave mean change from baseline: 5.88 cm/s
  CI mean change from baseline: 0.15 l/min/m^2
  E wave mean change from baseline: -10.19 cm/s
  E/A ratio mean change from baseline: −0.35
  E/e′ ratio mean change from baseline: −2.05
  EDV Index mean change from baseline: 0.64 ml/m^2
  EDV mean change from baseline: 1.35 mL
  ESV Index mean change from baseline: −2.42 ml/m^2
  ESV mean change from baseline: -4.62 mL
  IVC diameter mean change from baseline: −1.24 mm
  LAA mean change from baseline: −1.03 cm^2
  LAV mean change from baseline: -4.94 mL
  LAVI mean change from baseline: −2.86 mL/m^2
  LVEF mean change from baseline: 2.35%
  PASP mean change from baseline: −2.60 mmHg
  SVI mean change from baseline: 4.32 ml/beat/m^2
  S′ mean change from baseline: 1.00 cm/s
  TAPSE mean change from baseline: 1.56 mm
  e′ mean change from baseline: -0.03 cm/s
1.0 μg/Kg/min, 24 hours
  A wave mean change from baseline: 9.00 cm/s
  CI mean change from baseline: 0.15 l/min/m^2
  E wave mean change from baseline: -14.06 cm/s
  E/A ratio mean change from baseline: −0.65
  E/e′ ratio mean change from baseline: −3.16
  EDV Index mean change from baseline: −2.08 ml/m^2
  EDV mean change from baseline: -3.67 mL
  ESV Index mean change from baseline: −6.23 ml/m^2
  ESV mean change from baseline: -11.39 mL
  IVC diameter mean change from baseline: −2.23 mm
  LAA mean change from baseline: −2.21 cm^2
  LAV mean change from baseline: -12.94 mL
  LAVI mean change from baseline: −7.32 mL/m^2
  LVEF mean change from baseline: 3.82%
  PASP mean change from baseline: −4.76 mmHg
  SVI mean change from baseline: 5.49 ml/beat/m^2
  S′ mean change from baseline: 0.81 cm/s
  TAPSE mean change from baseline: 1.16 mm
  e′ mean change from baseline: 0.10 cm/s
1.0 μg/Kg/min, 48 hours
  A wave mean change from baseline: 5.30 cm/s
  CI mean change from baseline: 0.20 l/min/m^2
  E wave mean change from baseline: -11.53 cm/s
  E/A ratio mean change from baseline: −0.36
  E/e′ ratio mean change from baseline: −2.21
  EDV Index mean change from baseline: −1.86 ml/m^2
  EDV mean change from baseline: -3.18 mL
  ESV Index mean change from baseline: −4.46 ml/m^2
  ESV mean change from baseline: -8.09 mL
  IVC diameter mean change from baseline: −2.19 mm
  LAA mean change from baseline: −0.94 cm^2
  LAV mean change from baseline: -6.67 mL
  LAVI mean change from baseline: −3.80 mL/m^2
  LVEF mean change from baseline: 2.06%
  PASP mean change from baseline: −3.00 mmHg
  SVI mean change from baseline: 2.91 ml/beat/m^2
  S′ mean change from baseline: 0.26 cm/s
  TAPSE mean change from baseline: 0.31 mm
  e′ mean change from baseline: 0.19 cm/s
1.0 μg/kg/min (cohort 2)
  E/e′ change from baseline to 24 h (primary endpoint): −3.16 ± 2.59
1.0 μg/kg/min (cohort 2), listed as istaroxime
  E/e′ change from baseline to 24 h (primary endpoint): −3.16±2.59
1.0 μg/kg/min
  E/A ratio change at 24 h: −0.65 ± 1.10
  LV ejection fraction change at 24 h: 3.82 ± 4.14%
  LV end-diastolic volume index change at 24 h: −2.08 ± 9.05 mL/m^2
  LV end-systolic volume index change at 24 h: −6.23 ± 9.23 mL/m^2
  Left atrial area change at 24 h: −2.21 ± 3.18 cm^2
  Left atrial volume index change at 24 h: −7.32 ± 10.0 mL/m^2
  Stroke volume index change at 24 h: 5.49 ± 4.98 mL/beat/m^2
  S′ change at 24 h: 0.81 ± 1.01 cm/s
per-protocol population
  E/e′ change from baseline to 24 h: −3.19±2.63
